Laboratory results as given in the supplement of paper PMC5579334.
± gives the standard deviation of the averaged measurements.

Assays:
[1] = tested on: HS-PSS; test: drug sensitivity score (DSS, CellTiter-Glo viability, 72 h) (DSS (dimensionless)); higher = more sensitive; extreme values may be limits of the assay
How it was run: (§1)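 For this screen, 384-well plates were preprinted with each compound at five concentrations in 10-fold steps and seeded with MPNST cell lines or primary human Schwann cells at 750–1000 cells per well. Incubation lasted 72 h at 37 °C, 5% CO2, and CellTiter-Glo ATP luminescence, scaled between vehicle and positive-control wells and averaged over duplicates where available, served as viability. Logistic fits with four parameters were applied. Relative IC50 (censored at the top concentration) and drug sensitivity score derive from these fits, and percent inhibition is at the top concentration.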

[2] = tested on: HS-Sch-2; test: as above
How it was run: as §1

[3] = tested on: HSC1 (primary human Schwann cells); test: as above
How it was run: as §1

[4] = tested on: HSC2 (primary human Schwann cells); test: as above
How it was run: as §1

[5] = tested on: S1507-2; test: as above
How it was run: as §1

[6] = tested on: S462; test: as above
How it was run: as §1

[7] = tested on: ST8814; test: as above
How it was run: as §1

[8] = tested on: STS26T; test: as above
How it was run: as §1

[9] = tested on: YST-1; test: as above
How it was run: as §1

[10] = tested on: HS-PSS; test: drug sensitivity score (DSS, CellTox-Green cytotoxicity, 72 h) (DSS (dimensionless)); higher = more cytotoxic; extreme values may be limits of the assay
How it was run: (§2)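 MPNST cell lines and primary human Schwann cells were grown for 72 h at 37 °C in 384-well plates containing five 10-fold compound dilutions. CellTox-Green, added before seeding at a final 1:1000 dilution, gave fluorescence from DNA released by disrupted cells, and signals were scaled to vehicle and positive-control wells. Curves were fitted with a four-parameter logistic model. Drug sensitivity score and relative IC50 come from these fits, with IC50 censored at the top concentration.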

[11] = tested on: HSC1 (primary human Schwann cells); test: as above
How it was run: as §2

[12] = tested on: HSC2 (primary human Schwann cells); test: as above
How it was run: as §2

[13] = tested on: S1507-2; test: as above
How it was run: as §2

[14] = tested on: ST8814; test: as above
How it was run: as §2

[15] = tested on: STS26T; test: as above
How it was run: as §2

[16] = tested on: HS-PSS; test: % inhibition of CellTiter-Glo viability at highest tested concentration (72 h), relative to DMSO and benzethonium chloride controls; higher = more inhibition
How it was run: as §1

[17] = tested on: HS-Sch-2; test: as above
How it was run: as §1

[18] = tested on: HSC1 (primary human Schwann cells); test: as above
How it was run: as §1

[19] = tested on: HSC2 (primary human Schwann cells); test: as above
How it was run: as §1

[20] = tested on: S1507-2; test: as above
How it was run: as §1

[21] = tested on: S462; test: as above
How it was run: as §1

[22] = tested on: ST8814; test: as above
How it was run: as §1

[23] = tested on: STS26T; test: as above
How it was run: as §1

[24] = tested on: YST-1; test: as above
How it was run: as §1

| SMILES | drug sensitivity score [1] | drug sensitivity score [2] | drug sensitivity score [3] | drug sensitivity score [4] | drug sensitivity score [5] | drug sensitivity score [6] | drug sensitivity score [7] | drug sensitivity score [8] | drug sensitivity score [9] | drug sensitivity score [10] | drug sensitivity score [11] | drug sensitivity score [12] | drug sensitivity score [13] | drug sensitivity score [14] | drug sensitivity score [15] | % inhibition [16] | % inhibition [17] | % inhibition [18] | % inhibition [19] | % inhibition [20] | % inhibition [21] | % inhibition [22] | % inhibition [23] | % inhibition [24] |
| --- | --- | --- | --- | --- | --- | --- | --- | --- | --- | --- | --- | --- | --- | --- | --- | --- | --- | --- | --- | --- | --- | --- | --- | --- |
| Nc1nc(Cl)nc2c1ncn2[C@@H]1O[C@H](CO)[C@@H](O)[C@@H]1F [Clofarabine] (max concentration tested 10000 nM) | 13 | 18.2 | 14.4 | 17.5 | 11 ± 1.9 | 17.2 ± 2.3 | 12.8 | 15.8 | 14.8 | 6.52 | 15.7 | 15.8 | 3.61 ± 1.3 | 8.58 | 6.47 | 76% | 82.1% | 79.4% | 85.7% | 88.7 ± 1.4% | 103 ± 1.1% | 98.8% | 87.7% | 83.9% |
| C=CCN(/C=C1/C(=O)O[C@H](COC)[C@@]2(C)C1=C(O)C(=O)C1=C2[C@H](OC(C)=O)C[C@]2(C)C(=O)CC[C@@H]12)CC=C [Sonolisib] (max concentration tested 10000 nM) | 0 | 0 | 0 | 0.415 | 0.798 ± 0.34 | 0.831 ± 1.2 | 0.745 | 0.263 | 0 | 0 | 0 | 0 | 0 | 0 | 0 | 3.89% | -0.71% | 6.67% | 13.1% | 15.9 ± 0.9% | 17.1 ± 5.5% | 7.84% | 11.4% | 7.12% |
| CS(=O)(=O)c1ccc(C2=C(c3ccccc3)C(=O)OC2)cc1 [Rofecoxib] (max concentration tested 10000 nM) | 0 | 0 | 0 | 0 | 0 | 0 | 0 | 0 | 0 | 0 | 0 | 0 | 0 | 0 | 0 | -0.36% | -5.42% | 2.15% | -0.797% | 3.17 ± 6.5% | -1.92 ± 0.69% | 3.44% | -0.415% | 1.11% |
| Nc1ncn([C@@H]2O[C@H](CO)[C@@H](O)[C@H]2O)c(=O)n1 [Azacitidine] (max concentration tested 10000 nM) | 0.1 | 0 | 5.39 | 3.59 | 0 | 2.02 ± 0.98 | 0.0452 | 1.02 | 0.39 | 0 | 0 | 0 | 2.61 ± 3.7 | 0 | 0 | 15.6% | 10.9% | 75.2% | 68.2% | 3.07 ± 2.9% | 34.5 ± 9.2% | 12.4% | 29.9% | 22.1% |
| Cc1cc2c(F)c(Oc3ncnn4cc(OC[C@@H](C)O)c(C)c34)ccc2[nH]1 [Brivanib] (max concentration tested 1000 nM) | 0 | 0 | 0 | 0 | 0 | 0 | 0 | 0 | 0 | 0 | 0 | 0 | 0 | 0 | 0 | -3.58% | -0.92% | -5.58% | -0.326% | -1.44 ± 10% | 3.36 ± 7.5% | -1.65% | 4.35% | 0.09% |
| O=S(=O)(c1cccc2cnccc12)N1CCCNCC1 [Fasudil] (max concentration tested 50000 nM) | 1.83 | 3.75 | 1.41 | 1.36 | 1.02 ± 0.16 | 3.84 ± 0.63 | 0.609 | 2.86 | 2.59 | 0.2 | 0.888 | 0 | 0 | 0 | 0.899 | 45.6% | 71.5% | 27.6% | 31.8% | 30.5 ± 1.5% | 70.6 ± 9.4% | 22.3% | 58.9% | 51% |
| CN1CCN(CCOc2cc(OC3CCOCC3)c3c(Nc4c(Cl)ccc5c4OCO5)ncnc3c2)CC1 [Saracatinib] (max concentration tested 10000 nM) | 6.08 | 3.07 | 7.06 | 3.21 | 7.04 ± 1.5 | 3.91 ± 0.7 | 5.63 | 5.09 | 0.09 | 1.13 | 0 | 6.91 | 9.49 ± 1.6 | 5.67 | 1.58 | 67.5% | 51.7% | 50.3% | 37.1% | 74.8 ± 2.1% | 36.2 ± 0.27% | 55.2% | 50.2% | 14.6% |
